Consider 19 compounds from patent US8242275B2, “Bicyclic pyrazole compounds as antibacterial agents” (Janssen Pharmaceutica NV, priority 2005, dated 2012).

Values after ≈ are worked out from the molar mass of the structure shown.

Assay in all cases: In vitro antibacterial activity (MIC assay), broth microdilution
Type in all cases: cell-based
Background: Dilution methods test growth across graded concentrations, often in twofold steps.

The subject of experiment [1] is E. coli KL-16 (GSC strain 4245). Conditions: Escherichia coli. The method, then: (§1) Minimal inhibitory concentration (MIC) has been an indicator of in vitro antibacterial activity widely used in the art. The in vitro antibacterial activity of the compounds was determined by the broth microdilution method described by the National Committee for Clinical Laboratory Standards (NCCLS) in the NCCLS Document M7-A5, Vol. 20, No. 2, “Methods for Dilution Antimicrobial Susceptibility Test for Bacteria that Grow Aerobically—Fifth Edition”, which is incorporated herein by reference.
(§2) In this method, an aliquot of test compound from an 11-point series of 2-fold serial dilutions of compounds in 100% DMSO was added to wells in microdilution plates. The test organisms were prepared by adjusting the turbidity of actively growing broth cultures so that the final concentration of test organism after addition to wells with or without compounds was approximately 5×10^5 CFU/mL.
(§3) Following inoculation of the microdilution plates, the plates were incubated at 35° C. for 16-24 h and then scored for bacterial growth. […] The amount of growth in the wells containing the test compound was compared with the amount of growth in the growth-control wells (no test compound used) in each plate, and with the amount of growth in the wells containing control compounds (such as ciprofloxacin). Compounds of the present invention were tested against several bacterial strains. The MIC values (in μg/mL) are presented in Table 1 for Gram-negative (E. coli KL-16 (GSC strain 4245); data marked as (*) was obtained with E. coli ATCC25922) and Gram-positive bacteria (S. aureus ATCC13709; S. pneumoniae ATCC49619).

In a further experiment the test system is S. aureus ATCC13709. The note with it: Staphylococcus aureus, ATCC13709; read-out: S. aureus ATCC13709 MIC. As for the experimental part: as §1, §2, §3
The next experiment relates to S. pneumoniae ATCC49619. Conditions: Streptococcus pneumoniae, ATCC49619; read-out: S. pneumoniae ATCC49619 MIC. The method, then:
as §1, §2, §3

`COc1ccc2nccc(-n3cc4c(n3)CCC(NC(=O)c3cc5c(cc3F)OCCO5)C4)c2n1` (stereo not drawn) [Example 2, 7-Fluoro-2,3-dihydro-benzo[1,4]dioxine-6-carboxylic acid [2-(6-methoxy-[1,5]naphthyridin-4-yl)-4,5,6,7-tetrahydro-2H-indazol-5-yl]-amide]: the MIC in experiment [1] was > 128 µg/mL; in the experiment with S. aureus ATCC13709 it was 0.5 µg/mL (≈ 1.05 µM); in the experiment on S. pneumoniae ATCC49619, 8 µg/mL (≈ 16.8 µM).
For `COc1ccc2nccc(-n3cc4c(n3)CCC(NC(=O)c3ccc5c(c3)OCCCO5)C4)c2n1` (stereo not drawn) [Example 3, 3,4-Dihydro-2H-benzo[b][1,4]dioxepine-7-carboxylic acid [2-(6-methoxy-[1,5]naphthyridin-4-yl)-4,5,6,7-tetrahydro-2H-indazol-5-yl]-amide] the same measures were > 128 µg/mL, 1 µg/mL (≈ 2.12 µM) and 4 µg/mL (≈ 8.48 µM).
For `COc1ccc2nccc(-n3cc4c(n3)CCC(NC(=O)/C=C/c3ccccc3)C4)c2n1` (stereo not drawn) [Example 10, N-[2-(6-Methoxy-[1,5]naphthyridin-4-yl)-4,5,6,7-tetrahydro-2H-indazol-5-yl]-3-phenyl-acrylamide] the same measures were > 128 µg/mL, 0.25 µg/mL (≈ 0.588 µM) and 2 µg/mL (≈ 4.7 µM).
As for `COc1ccc2nccc(-n3cc4c(n3)CCC(NC(=O)c3ccc5c(c3)OCCO5)C4)c2c1` (stereo not drawn) [Example 16, 2,3-Dihydro-benzo[1,4]dioxine-6-carboxylic acid [2-(6-methoxy-quinolin-4-yl)-4,5,6,7-tetrahydro-2H-indazol-5-yl]-amide], the minimal inhibitory concentration (MIC) in experiment [1] was > 128 µg/mL; in the experiment on S. aureus ATCC13709 it was 2 µg/mL (≈ 4.38 µM); in the experiment on S. pneumoniae ATCC49619, 8 µg/mL (≈ 17.5 µM).
In the case of `COc1ccc2nccc(-n3cc4c(n3)CCC(NC(=O)c3cc5c(F)cccc5s3)C4)c2c1` (stereo not drawn) [Example 24, 4-Fluoro-benzo[b]thiophene-2-carboxylic acid [2-(6-methoxy-quinolin-4-yl)-4,5,6,7-tetrahydro-2H-indazol-5-yl]-amide], the minimum inhibitory concentration (MIC) was > 128 µg/mL in experiment [1], < 0.125 µg/mL in the experiment with S. aureus ATCC13709 and 4 µg/mL (≈ 8.46 µM) with S. pneumoniae ATCC49619.
The matching figures for `COc1ccc2nccc(-n3cc4c(n3)CC(NC(=O)c3ccc5c(c3)NC(=O)CS5)CC4)c2c1` (stereo not drawn) [Example 27, 3-Oxo-3,4-dihydro-2H-benzo[1,4]thiazine-6-carboxylic acid [2-(6-methoxy-quinolin-4-yl)-4,5,6,7-tetrahydro-2H-indazol-6-yl]-amide]: 4 µg/mL (≈ 8.24 µM), 0.125 µg/mL (≈ 0.257 µM) and 4 µg/mL (≈ 8.24 µM).
Take `COc1ccc2nccc(-n3cc4c(n3)CCC(NC(=O)/C=C/c3ccccc3)C4)c2c1` (stereo not drawn) [Example 29, N-[2-(6-Methoxy-quinolin-4-yl)-4,5,6,7-tetrahydro-2H-indazol-5-yl]-3-phenyl-acrylamide]: the figures for the MIC (in experiment [1]; in the experiment with S. aureus ATCC13709; in the experiment on S. pneumoniae ATCC49619) were > 128 µg/mL, 1 µg/mL (≈ 2.36 µM) and 4 µg/mL (≈ 9.42 µM), respectively.
On to `COc1ccc2nccc(-n3cc4c(n3)CCC(NC(=O)/C=C/c3cccs3)C4)c2c1` (stereo not drawn) [Example 30, N-[2-(6-Methoxy-quinolin-4-yl)-4,5,6,7-tetrahydro-2H-indazol-5-yl]-3-thiophen-2-yl-acrylamide], for which the results for the minimal inhibitory concentration (MIC) (in experiment [1]; with S. aureus ATCC13709; in the experiment on S. pneumoniae ATCC49619) were > 128 µg/mL, 1 µg/mL (≈ 2.32 µM) and 8 µg/mL (≈ 18.6 µM), respectively.
As to `COc1ccc2nccc(-n3cc4c(n3)CCC(NCc3ccc(N(C)C)cc3)C4)c2n1` (stereo not drawn) [Example 39, (4-Dimethylamino-benzyl)-[2-(6-methoxy-[1,5]naphthyridin-4-yl)-4,5,6,7-tetrahydro-2H-indazol-5-yl]-amine], the values for the MIC (in experiment [1]; in the experiment with S. aureus ATCC13709; in the experiment on S. pneumoniae ATCC49619) were > 128 µg/mL, 0.5 µg/mL (≈ 1.17 µM) and 1 µg/mL (≈ 2.33 µM), respectively.
On to `COc1ccc2nccc(-n3cc4c(n3)CCC(NCc3cc5c(cc3F)OCCO5)C4)c2c1` (stereo not drawn) [Example 51, (7-Fluoro-2,3-dihydro-benzo[1,4]dioxin-6-ylmethyl)-[2-(6-methoxy-quinolin-4-yl)-4,5,6,7-tetrahydro-2H-indazol-5-yl]-amine], for which the minimal inhibitory concentration (MIC) in experiment [1] was > 128 µg/mL; with S. aureus ATCC13709, 1 µg/mL (≈ 2.17 µM); in the experiment on S. pneumoniae ATCC49619 it was 1 µg/mL (≈ 2.17 µM).
In the case of `COc1ccc2nccc(-n3cc4c(n3)CCC(NC/C(C)=C/c3ccccc3)C4)c2c1` (stereo not drawn) [Example 56, [2-(6-Methoxy-quinolin-4-yl)-4,5,6,7-tetrahydro-2H-indazol-5-yl]-(2-methyl-3-phenyl-allyl)-amine], the minimum inhibitory concentration (MIC) in experiment [1] was 128 µg/mL (≈ 301 µM); in the experiment with S. aureus ATCC13709, 1 µg/mL (≈ 2.36 µM); in the experiment with S. pneumoniae ATCC49619, 2 µg/mL (≈ 4.71 µM).
As to `COc1ccc2nccc(-n3cc4c(n3)CCC(NCC(=O)Nc3ccccc3)C4)c2n1` (stereo not drawn) [Example 59, 2-[2-(6-Methoxy-[1,5]naphthyridin-4-yl)-4,5,6,7-tetrahydro-2H-indazol-5-ylamino]-N-phenyl-acetamide], the minimal inhibitory concentration (MIC) amounted to 128 µg/mL (≈ 299 µM) in experiment [1], 1 µg/mL (≈ 2.33 µM) in the experiment with S. aureus ATCC13709 and 8 µg/mL (≈ 18.7 µM) in the experiment on S. pneumoniae ATCC49619.
Turning to `COc1ccc2nccc(-n3cc4c(n3)CCC(NCC(=O)Nc3ccc(Cl)c(Cl)c3)C4)c2c1` (stereo not drawn) [Example 62, N-(3,4-Dichloro-phenyl)-2-[2-(6-methoxy-quinolin-4-yl)-4,5,6,7-tetrahydro-2H-indazol-5-ylamino]-acetamide], the MIC in experiment [1] was > 128 µg/mL; in the experiment on S. aureus ATCC13709, 1 µg/mL (≈ 2.01 µM); in the experiment on S. pneumoniae ATCC49619, 16 µg/mL (≈ 32.2 µM).
For `COc1ccc2nccc(-n3cc4c(n3)CCC(NCC(=O)c3ccc5c(c3)NC(=O)CO5)C4)c2c1` (stereo not drawn) [Example 63, 6-{2-[2-(6-Methoxy-quinolin-4-yl)-4,5,6,7-tetrahydro-2H-indazol-5-ylamino]-acetyl}-4H-benzo[1,4]oxazin-3-one], the results for the MIC (in experiment [1]; with S. aureus ATCC13709; with S. pneumoniae ATCC49619) were 6 µg/mL (≈ 12.4 µM), 0.1 µg/mL (≈ 0.207 µM) and 0.8 µg/mL (≈ 1.65 µM), respectively.
For `COc1ccc2nccc(-n3cc4c(n3)CCC(NC(=O)c3nc5ccccc5[nH]3)C4)c2c1` (stereo not drawn) [Example 71, 1H-Benzoimidazole-2-carboxylic acid [2-(6-methoxy-quinolin-4-yl)-4,5,6,7-tetrahydro-2H-indazol-5-yl]-amide] the same measures were > 128 µg/mL, 2 µg/mL (≈ 4.56 µM) and 8 µg/mL (≈ 18.2 µM).
Take `COc1ccc2nccc(-n3cc4c(n3)CCC(NC(=O)c3cc5cc(Br)ccc5[nH]3)C4)c2c1` (stereo not drawn) [Example 76, 5-Bromo-1H-indole-2-carboxylic acid [2-(6-methoxy-quinolin-4-yl)-4,5,6,7-tetrahydro-2H-indazol-5-yl]-amide]: the minimal inhibitory concentration (MIC) in experiment [1] is > 128 µg/mL; with S. aureus ATCC13709, 2 µg/mL (≈ 3.87 µM); in the experiment on S. pneumoniae ATCC49619, > 128 µg/mL.
Consider `Cc1cc(-n2cc3c(n2)CCC(NC(=O)c2ccc4c(c2)NC(=O)CS4)C3)c2cc(F)ccc2n1` (stereo not drawn) [Example 82, 3-Oxo-3,4-dihydro-2H-benzo[1,4]thiazine-6-carboxylic acid [2-(6-fluoro-2-methyl-quinolin-4-yl)-4,5,6,7-tetrahydro-2H-indazol-5-yl]-amide], for which the minimum inhibitory concentration (MIC) is > 128 µg/mL in experiment [1], 8 µg/mL (≈ 16.4 µM) with S. aureus ATCC13709 and > 128 µg/mL in the experiment on S. pneumoniae ATCC49619.
As to `COc1ccc2nccc(-n3cc4c(n3)CCC(NCC(=O)NCc3ccccc3)C4)c2n1` (stereo not drawn) [Example 84, N-Benzyl-2-[2-(6-methoxy-[1,5]naphthyridin-4-yl)-4,5,6,7-tetrahydro-2H-indazol-5-ylamino]-acetamide], the MIC is > 128 µg/mL in experiment [1], 2 µg/mL (≈ 4.52 µM) in the experiment with S. aureus ATCC13709 and 16 µg/mL (≈ 36.2 µM) with S. pneumoniae ATCC49619.
For `COc1ccc2nccc(-n3cc4c(n3)CCC(NCc3cc(OC)c(OC)cc3F)C4)c2n1` (stereo not drawn) [Example 88, (2-Fluoro-4,5-dimethoxy-benzyl)-[2-(6-methoxy-[1,5]naphthyridin-4-yl)-4,5,6,7-tetrahydro-2H-indazol-5-yl]-amine] the same measures were > 128 µg/mL, 4 µg/mL (≈ 8.63 µM) and 8 µg/mL (≈ 17.3 µM).

As a reminder, the MIC is the lowest concentration that inhibits growth of the organism.
